Read-outs that look alike come from different tables or passages of the source.
What was measured:
[1] = molecular target: T1, hERG1a/1b (heteromeric hERG channel, IhERG) (Homo sapiens, UniProt Q12809)
T1 construct: gene KCNH2

[2] = molecular target: T2, hERG1a (homomeric hERG channel, IhERG) (Homo sapiens, UniProt Q12809)
T2 construct: gene KCNH2

[3] = molecular target: T2, hERG1a (homomeric hERG channel, IhERG); assay: whole-cell patch clamp, tail current
[4] = molecular target: T1, hERG1a/1b (heteromeric hERG channel, IhERG); assay: whole-cell patch clamp, tail current

T1 sequence (Q12809 whole entry): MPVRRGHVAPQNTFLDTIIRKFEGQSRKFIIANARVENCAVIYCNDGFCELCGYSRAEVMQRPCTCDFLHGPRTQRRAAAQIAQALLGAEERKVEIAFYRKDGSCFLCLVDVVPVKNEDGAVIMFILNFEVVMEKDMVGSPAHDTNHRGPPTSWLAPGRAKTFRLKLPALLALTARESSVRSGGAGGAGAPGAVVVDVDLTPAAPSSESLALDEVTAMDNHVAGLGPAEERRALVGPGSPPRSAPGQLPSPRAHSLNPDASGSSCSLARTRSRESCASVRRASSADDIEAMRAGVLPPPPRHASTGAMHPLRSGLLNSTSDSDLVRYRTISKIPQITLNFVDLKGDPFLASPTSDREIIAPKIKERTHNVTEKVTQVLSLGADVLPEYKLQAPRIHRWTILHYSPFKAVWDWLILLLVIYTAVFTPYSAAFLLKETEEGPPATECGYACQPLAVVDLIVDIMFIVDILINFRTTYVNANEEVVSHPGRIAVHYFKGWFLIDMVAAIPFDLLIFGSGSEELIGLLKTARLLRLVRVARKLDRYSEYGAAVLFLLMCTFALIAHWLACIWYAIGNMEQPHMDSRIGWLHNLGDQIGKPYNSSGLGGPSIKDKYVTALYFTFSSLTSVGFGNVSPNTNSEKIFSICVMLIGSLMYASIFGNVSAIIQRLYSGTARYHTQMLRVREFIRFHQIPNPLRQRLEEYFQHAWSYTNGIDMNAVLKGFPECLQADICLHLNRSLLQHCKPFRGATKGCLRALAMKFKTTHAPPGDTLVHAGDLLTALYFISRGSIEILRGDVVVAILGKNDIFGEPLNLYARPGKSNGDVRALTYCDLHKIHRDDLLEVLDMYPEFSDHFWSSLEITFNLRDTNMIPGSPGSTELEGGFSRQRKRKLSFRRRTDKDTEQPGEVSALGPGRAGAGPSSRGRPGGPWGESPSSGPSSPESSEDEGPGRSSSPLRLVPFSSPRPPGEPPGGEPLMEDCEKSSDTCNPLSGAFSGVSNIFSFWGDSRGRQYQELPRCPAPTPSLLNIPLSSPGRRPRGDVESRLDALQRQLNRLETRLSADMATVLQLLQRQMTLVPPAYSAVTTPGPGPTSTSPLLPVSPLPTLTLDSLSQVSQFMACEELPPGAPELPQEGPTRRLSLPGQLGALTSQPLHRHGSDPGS
T1 sequence (Q12809 377-1159 limits assumed): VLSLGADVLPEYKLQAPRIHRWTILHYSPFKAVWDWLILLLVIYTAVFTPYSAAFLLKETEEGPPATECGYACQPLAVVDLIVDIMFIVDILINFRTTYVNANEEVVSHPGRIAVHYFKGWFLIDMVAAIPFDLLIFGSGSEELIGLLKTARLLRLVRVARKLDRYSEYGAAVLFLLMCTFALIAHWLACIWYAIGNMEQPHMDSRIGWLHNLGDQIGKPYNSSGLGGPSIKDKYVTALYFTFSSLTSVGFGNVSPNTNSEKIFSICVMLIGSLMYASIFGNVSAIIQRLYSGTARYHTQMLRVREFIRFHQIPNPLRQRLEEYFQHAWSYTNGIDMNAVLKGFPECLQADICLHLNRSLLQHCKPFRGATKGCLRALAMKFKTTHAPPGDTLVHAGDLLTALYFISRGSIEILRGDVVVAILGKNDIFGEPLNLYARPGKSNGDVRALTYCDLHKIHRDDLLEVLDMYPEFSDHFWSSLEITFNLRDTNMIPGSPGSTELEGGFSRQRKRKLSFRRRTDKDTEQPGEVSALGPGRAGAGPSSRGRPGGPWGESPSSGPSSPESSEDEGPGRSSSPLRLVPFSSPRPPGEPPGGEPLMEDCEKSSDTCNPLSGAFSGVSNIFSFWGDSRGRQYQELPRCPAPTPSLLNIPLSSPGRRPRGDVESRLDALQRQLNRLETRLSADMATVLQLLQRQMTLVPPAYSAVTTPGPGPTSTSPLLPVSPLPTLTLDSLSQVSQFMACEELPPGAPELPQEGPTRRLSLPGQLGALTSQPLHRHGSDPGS
T2 sequence (Q12809 whole entry): as the sequence (Q12809 whole entry) above

SMILES: CO[C@]12CC[C@@]3(C[C@@H]1[C@](C)(O)C(C)(C)C)[C@H]1Cc4ccc(O)c5c4[C@@]3(CCN1CC1CC1)[C@H]2O5 [Buprenorphine]
- IC50 [1]: 6.9 ± 0.9 µM
- IC50 [2]: 8.7 ± 0.4 µM

SMILES: O=C1CC[C@@]2(O)[C@H]3Cc4ccc(O)c5c4[C@@]2(CCN3CC2CC2)[C@H]1O5 [Naltrexone]
- IC50 [3]: 31.1 ± 5.4 µM
- IC50 [4]: 32.3 ± 8.6 µM

From publication PMC7647070, “Mechanisms of QT prolongation by buprenorphine cannot be explained by direct hERG channel block” (PLoS ONE, 2020)
